Test results taken from US12559529B2, “NPY2 receptor agonists” (Boehringer Ingelheim International GmbH, priority 2019, dated 2026).
Where two headings read alike, the source gives them in different places.

Tests used:
normal NMRI mice = experiment: Effect on acute food intake in normal NMRI mice; assay type: in vivo; conditions: male NMRI mice, 10 nmol/kg subcutaneously once
Method in brief: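 Male NMRI mice acclimatized in an HM-2 real-time food intake monitoring system, fasted 6 h before dark phase. Single subcutaneous dose of 10 nmol/kg peptide given 1 h before dark; n=7-8. Food intake expressed as % of vehicle group (50 mM phosphate pH7, 5% Mannitol).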

[1] = target: T1, Human Neuropeptide Y2 Receptor (Homo sapiens, UniProt P49146); experiment: Radioligand binding competition assay (RLB); conditions: read-out: Ki
T1 construct: purchased CHEMICON HTS066M
T1 sequence (P49146 1-381): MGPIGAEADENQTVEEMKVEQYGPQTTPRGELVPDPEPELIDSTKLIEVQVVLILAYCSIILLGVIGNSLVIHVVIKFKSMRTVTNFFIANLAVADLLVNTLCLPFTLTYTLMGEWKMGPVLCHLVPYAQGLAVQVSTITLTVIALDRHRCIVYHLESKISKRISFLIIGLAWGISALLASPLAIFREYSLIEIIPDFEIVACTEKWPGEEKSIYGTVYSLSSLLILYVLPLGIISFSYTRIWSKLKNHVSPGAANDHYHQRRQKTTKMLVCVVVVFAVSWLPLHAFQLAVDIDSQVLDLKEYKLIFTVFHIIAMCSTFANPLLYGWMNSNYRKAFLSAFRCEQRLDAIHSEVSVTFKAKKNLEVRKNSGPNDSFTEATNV
Method in brief: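 Filtration format; Y2R membrane prep 0.5 μg/well; buffer 50 mM HEPES/5 mM MgCl2/1 mM CaCl2/0.2% ovalbumin pH 7.4; 2 h RT, shaking. Harvest on PEI-soaked GF/C, ice-cold HEPES/500 mM NaCl washes, scintillation count. IC50 by nonlinear fit.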

[2] = Table 3, human 125I-PYY (1-36) 0.02 nM, Y2 receptor membranes

Ki [1, 2] [nM]	SMILES	Acute Food Intake 24 h [% vehicle] (normal NMRI mice)	Ki [1] [nM]
1.26	CC(C)CC(=O)N[C@@H](C)C(=O)N1CCC[C@H]1C(=O)N[C@@H](CCC(=O)O)C(=O)N[C@@H](CCCCNC(=O)COCCOCCNC(=O)COCCOCCNC(=O)CC[C@H](NC(=O)CCCCCCCCCCCCCCCCC(=O)O)C(=O)O)C(=O)N1CCC[C@H]1C(=O)N[C@@H](CCC(=O)O)C(=O)N[C@@H](C)C(=O)N[C@@H](CC(=O)O)C(=O)N[C@@H](C)C(=O)N[C@@H](CCC(=O)O)C(=O)N1CCC[C@H]1C(=O)N[C@@H](CCC(=O)O)C(=O)N[C@@H](CCC(=O)O)C(=O)N[C@@H](CC(C)C)C(=O)N[C@@H](CCC(N)=O)C(=O)N[C@@H](CCCNC(=N)N)C(=O)N[C@@H](Cc1ccc(O)cc1)C(=O)N[C@@H](Cc1ccc(O)cc1)C(=O)N[C@H](C(=O)N[C@@H](CO)C(=O)N[C@@H](CC(C)C)C(=O)N[C@@H](CCCNC(=N)N)C(=O)N[C@@H](Cc1c[nH]cn1)C(=O)N[C@@H](Cc1ccc(O)cc1)C(=O)N[C@@H](Cc1ccc(O)cc1)C(=O)N[C@@H](CC(N)=O)C(=O)N[C@@H](Cc1c[nH]c2ccccc12)C(=O)N[C@@H](CC(C)C)C(=O)N[C@H](C(=O)N[C@@H](CCCNC(=N)N)C(=O)N[C@@H](CCC(N)=O)C(=O)N[C@@H](CCCNC(=N)N)C(=O)N[C@@H](Cc1ccc(O)cc1)C(N)=O)[C@@H](C)O)C(C)C [Compound 56, N{alpha-4}-(3-methylbutanoyl)-N{epsilon-7}-[2-(2-{2-[2-(2-{2-[(4S)-4-carboxy-4-(17-carboxyheptadecanamido)butanamido]ethoxy}ethoxy)acetamido]ethoxy}ethoxy)acetamido]-[4A,7K,9E,10A,13E,18Q,22V,28Y,30W,31L]hPYY (4-36)]	53	
	CC(C)CC(=O)N[C@@H](C)C(=O)N1CCC[C@H]1C(=O)N[C@@H](CCC(=O)O)C(=O)N[C@@H](CCCCNC(=O)COCCOCCNC(=O)COCCOCCNC(=O)CC[C@H](NC(=O)CCCCCCCCCCCCCCCCC(=O)O)C(=O)O)C(=O)N1CCC[C@H]1C(=O)N[C@@H](CCC(=O)O)C(=O)N[C@@H](CCC(=O)O)C(=O)N[C@@H](CCC(=O)O)C(=O)N[C@@H](C)C(=O)N[C@@H](CO)C(=O)N[C@@H](CCC(=O)O)C(=O)N[C@@H](CCC(=O)O)C(=O)N[C@@H](CCC(=O)O)C(=O)N[C@@H](CC(C)C)C(=O)N[C@@H](CCC(N)=O)C(=O)N[C@@H](CCCNC(=N)N)C(=O)N[C@@H](Cc1ccc(O)cc1)C(=O)N[C@@H](Cc1ccc(O)cc1)C(=O)N[C@H](C(=O)N[C@@H](CO)C(=O)N[C@@H](CC(C)C)C(=O)N[C@@H](CCCNC(=N)N)C(=O)N[C@@H](Cc1c[nH]cn1)C(=O)N[C@@H](Cc1ccc(O)cc1)C(=O)N[C@@H](Cc1ccc(O)cc1)C(=O)N[C@@H](CC(N)=O)C(=O)N[C@@H](Cc1c[nH]c2ccccc12)C(=O)N[C@@H](CC(C)C)C(=O)N[C@H](C(=O)N[C@@H](CCCNC(=N)N)C(=O)N[C@@H](CCC(N)=O)C(=O)N[C@@H](CCCNC(=N)N)C(=O)N[C@@H](Cc1ccc(O)cc1)C(N)=O)[C@@H](C)O)C(C)C [Compound 79, N{alpha-4}-(3-methylbutanoyl)-N{epsilon-7}-[2-(2-{2-[2-(2-{2-[(4S)-4-carboxy-4-(17-carboxyheptadecanamido)butanamido]ethoxy}ethoxy)acetamido]ethoxy}ethoxy)acetamido]-[4A,7K,9E,11E,14E,18Q,22V,28Y,30W,31L]hPYY (4-36)]	75	4.52
1.6	CC(C)CC(=O)N[C@@H](C)C(=O)N1CCC[C@H]1C(=O)N[C@@H](CCC(=O)O)C(=O)N[C@@H](CCCCNC(=O)COCCOCCNC(=O)COCCOCCNC(=O)CC[C@H](NC(=O)CCCCCCCCCCCCCCCCC(=O)O)C(=O)O)C(=O)N1CCC[C@H]1C(=O)N[C@@H](CCC(=O)O)C(=O)N[C@@H](CCC(=O)O)C(=O)N[C@@H](CC(=O)O)C(=O)N[C@@H](C)C(=O)N[C@@H](CO)C(=O)N1CCC[C@H]1C(=O)N[C@@H](CCC(=O)O)C(=O)N[C@@H](CCC(=O)O)C(=O)N[C@@H](CC(C)C)C(=O)N[C@@H](CCC(N)=O)C(=O)N[C@@H](CCCNC(=N)N)C(=O)N[C@@H](Cc1ccc(O)cc1)C(=O)N[C@@H](CCC(=O)O)C(=O)N[C@H](C(=O)N[C@@H](CO)C(=O)N[C@@H](CC(C)C)C(=O)N[C@@H](CCCNC(=N)N)C(=O)N[C@@H](Cc1c[nH]cn1)C(=O)N[C@@H](Cc1ccc(O)cc1)C(=O)N[C@@H](Cc1ccc(O)cc1)C(=O)N[C@@H](CC(N)=O)C(=O)N[C@@H](Cc1c[nH]c2ccccc12)C(=O)N[C@@H](CC(C)C)C(=O)N[C@H](C(=O)N[C@@H](CCCNC(=N)N)C(=O)N[C@@H](CCC(N)=O)C(=O)N[C@@H](CCCNC(=N)N)C(=O)N[C@@H](Cc1ccc(O)cc1)C(N)=O)[C@@H](C)O)C(C)C [Compound 90, N{alpha-4}-(3-methylbutanoyl)-N{epsilon-7}-[2-(2-{2-[2-(2-{2-[(4S)-4-carboxy-4-(17-carboxyheptadecanamido)butanamido]ethoxy}ethoxy)acetamido]ethoxy}ethoxy)acetamido]-[4A,7K,9E,18Q,21E,22V,28Y,30W,31L]hPYY (4-36)]	70	
3.29	CC(C)CC(=O)N[C@@H](C)C(=O)N1CCC[C@H]1C(=O)N[C@@H](CCC(=O)O)C(=O)N[C@@H](CCCCNC(=O)COCCOCCNC(=O)COCCOCCNC(=O)CC[C@H](NC(=O)CCCCCCCCCCCCCCCCC(=O)O)C(=O)O)C(=O)N1CCC[C@H]1C(=O)N[C@@H](CCC(=O)O)C(=O)N[C@@H](CCC(=O)O)C(=O)N[C@@H](CC(=O)O)C(=O)N[C@@H](C)C(=O)N[C@H](C(=O)N1CCC[C@H]1C(=O)N[C@@H](CCC(=O)O)C(=O)N[C@@H](CCC(=O)O)C(=O)N[C@@H](CC(C)C)C(=O)N[C@@H](CCC(N)=O)C(=O)N[C@@H](CCCNC(=N)N)C(=O)N[C@@H](Cc1ccc(O)cc1)C(=O)N[C@@H](Cc1ccc(O)cc1)C(=O)N[C@H](C(=O)N[C@@H](CCC(=O)O)C(=O)N[C@@H](CC(C)C)C(=O)N[C@@H](CCCNC(=N)N)C(=O)N[C@@H](Cc1c[nH]cn1)C(=O)N[C@@H](Cc1ccc(O)cc1)C(=O)N[C@@H](Cc1ccc(O)cc1)C(=O)N[C@@H](CC(N)=O)C(=O)N[C@@H](Cc1c[nH]c2ccccc12)C(=O)N[C@@H](CC(C)C)C(=O)N[C@H](C(=O)N[C@@H](CCCNC(=N)N)C(=O)N[C@@H](CCC(N)=O)C(=O)N[C@@H](CCCNC(=N)N)C(=O)N[C@@H](Cc1ccc(O)cc1)C(N)=O)[C@@H](C)O)C(C)C)[C@@H](C)O [Compound 101, N{alpha-4}-(3-methylbutanoyl)-N{epsilon-7}-[2-(2-{2-[2-(2-{2-[(4S)-4-carboxy-4-(17-carboxyheptadecanamido)butanamido]ethoxy}ethoxy)acetamido]ethoxy}ethoxy)acetamido]-[4A,7K,9E,13T,18Q,22V,23E,28Y,30W,31L]hPYY (4-36)]	63	
0.95	CC(C)CC(=O)N[C@@H](C)C(=O)N1CCC[C@H]1C(=O)N[C@@H](C)C(=O)N[C@@H](CCCCNC(=O)COCCOCCNC(=O)COCCOCCNC(=O)CC[C@H](NC(=O)CCCCCCCCCCCCCCCCC(=O)O)C(=O)O)C(=O)N1CCC[C@H]1C(=O)N[C@@H](CCC(=O)O)C(=O)N[C@@H](CCC(=O)O)C(=O)N[C@@H](CC(=O)O)C(=O)N[C@@H](C)C(=O)N[C@@H](CO)C(=O)N[C@@H](CCC(=O)O)C(=O)N[C@@H](CCC(=O)O)C(=O)N[C@@H](CCC(=O)O)C(=O)N[C@@H](CC(C)C)C(=O)N[C@@H](CCC(N)=O)C(=O)N[C@@H](CCCNC(=N)N)C(=O)N[C@@H](Cc1ccc(O)cc1)C(=O)N[C@@H](Cc1ccc(O)cc1)C(=O)N[C@H](C(=O)N[C@@H](CO)C(=O)N[C@@H](CC(C)C)C(=O)N[C@@H](CCCNC(=N)N)C(=O)N[C@@H](Cc1c[nH]cn1)C(=O)N[C@@H](Cc1ccc(O)cc1)C(=O)N[C@@H](Cc1ccc(O)cc1)C(=O)N[C@@H](CC(N)=O)C(=O)N[C@@H](Cc1c[nH]c2ccccc12)C(=O)N[C@@H](CC(C)C)C(=O)N[C@H](C(=O)N[C@@H](CCCNC(=N)N)C(=O)N[C@@H](CCC(N)=O)C(=O)N[C@@H](CCCNC(=N)N)C(=O)N[C@@H](Cc1ccc(O)cc1)C(N)=O)[C@@H](C)O)C(C)C [Compound 103, N{alpha-4}-(3-methylbutanoyl)-N{epsilon-7}-[2-(2-{2-[2-(2-{2-[(4S)-4-carboxy-4-(17-carboxyheptadecanamido)butanamido]ethoxy}ethoxy)acetamido]ethoxy}ethoxy)acetamido]-[4A,6A,7K,9E,14E,18Q,22V,28Y,30W,31L]hPYY (4-36)]	67	
